Laboratory results as given in patent US11180462B2, “Microbiocidal oxadiazole derivatives” (SYNGENTA PARTICIPATIONS AG, priority 2015, dated 2021).

How the values were obtained:
[1] = test system: Puccinia recondita f. Sp. Tritici; test: Fungicidal activity against Puccinia recondita f. sp. tritici / wheat / leaf disc preventative (brown rust); assay type: in vivo; details: foliar, 200 ppm in the applied formulation, wheat leaf segments, preventative, compared to untreated control leaf disks, read-out: disease control
Method in brief: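 Percent disease control relative to untreated check segments is scored once disease develops, 7 to 9 days after application. Wheat cv. Kanzler segments receive compound spray (200 ppm in formulation) one day before spore inoculation, then sit at 19° C. and 75% rh under 12 h light/12 h dark.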

[2] = test system: Puccinia recondita f. Sp. Tritici; test: Fungicidal activity against Puccinia recondita f. sp. tritici / wheat / leaf disc curative (brown rust); assay type: in vivo; details: foliar, 24 h, 200 ppm in the applied formulation, wheat leaf segments, curative (applied 1 day after inoculation), compared to untreated control leaf disks, read-out: disease control
Method in brief: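 % disease control vs untreated, scored 6–8 d post-application. Wheat cv. Kanzler segments, spore-inoculated, dark 19° C/75% RH; formulated cpd applied 1 d post-inoc; then 19° C, 75% RH, 12 h L/12 h D.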

Phakopsora Pachyrhizi = test: Fungicidal activity against Phakopsora pachyrhizi / soybean / leaf disc preventative (Asian soybean rust); assay type: in vivo; details: foliar, 200 ppm in the applied formulation, soybean leaf disks, compared to untreated control leaf disks, read-out: disease control
Method in brief: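 Scored 12 to 14 days post-application as percent control relative to untreated check discs, rust spores were sprayed under the disc one day after compound treatment. Incubation: 20°C, 75% rh, first 24–36 h in darkness, then 12 h daily light; discs kept on water agar.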

[3] = test system: Glomerella lagenarium (Colletotrichum lagenarium); test: Fungicidal activity against Glomerella lagenarium (Colletotrichum lagenarium) liquid culture / cucumber / preventative (anthracnose); assay type: cell-based; details: Colletotrichum orbiculare; 20 ppm in the applied formulation; liquid culture (PDB), growth inhibition measured photometrically after 3 to 4 days; compared to untreated control; read-out: disease control
Method in brief: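 Percent activity against the untreated check was derived from photometric growth measurements made 2 to 7 days after conidia in potato dextrose broth were combined with compound at 20 ppm. Cultures were kept dark at 24 °C and 96% humidity.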

CON(Cc1ccc(-c2noc(C(F)(F)F)n2)cc1)C(=O)C(C)C [Compound 1.12, N-methoxy-2-methyl-N-[[4-[5-(trifluoromethyl)-1,2,4-oxadiazol-3-yl]phenyl]methyl]-propanamide]
≥ 80%: pest or weed control at 200 ppm [1] | pest or weed control at 200 ppm [2] | pest or weed control at 200 ppm (Phakopsora Pachyrhizi) | inhibition of growth at 20 ppm [3]

CCC(=O)N(Cc1ccc(-c2noc(C(F)(F)F)n2)c(F)c1F)OC [Compound 1.585, N-[[2,3-difluoro-4-[5-(trifluoromethyl)-1,2,4-oxadiazol-3-yl)phenyl]methyl)-N-methoxy-propanamide]
≥ 80%: pest or weed control at 200 ppm [1] | pest or weed control at 200 ppm [2] | pest or weed control at 200 ppm (Phakopsora Pachyrhizi) | inhibition of growth at 20 ppm [3]

C=CCN(Cc1ccc(-c2noc(C(F)(F)F)n2)cc1)C(=O)CCC [Compound 1.485, N-allyl-N-[[4-[5-(trifluoromethyl)-1,2,4-oxadiazol-3-yl]phenyl]methyl]-butanamide]
≥ 80%: pest or weed control at 200 ppm [1] | pest or weed control at 200 ppm [2] | pest or weed control at 200 ppm (Phakopsora Pachyrhizi) | inhibition of growth at 20 ppm [3]

CCC(C)N(Cc1ccc(-c2noc(C(F)(F)F)n2)cc1)C(=O)COC (centres unmarked) [Compound 1.372, 2-methoxy-N-sec-bulyl-N-[[4-[5-(trifluoromethyl)-1,2,4-oxadiazol-3-yl]phenyl]methyl]-acetamide]
≥ 80%: pest or weed control at 200 ppm [1] | pest or weed control at 200 ppm [2] | pest or weed control at 200 ppm (Phakopsora Pachyrhizi) | inhibition of growth at 20 ppm [3]

CCC(COC)C(=O)N(Cc1ccc(-c2noc(C(F)(F)F)n2)cc1)C1COC1 (centres unmarked) [Compound 1.745, 2-(methoxymethyl)-N-(oxetan-3-yl)-N-[[4-[5-(trifluoromethyl)-1,2,4-oxadiazol-3-yl]phenyl]methyl]-butanamide]
≥ 80%: pest or weed control at 200 ppm [1] | pest or weed control at 200 ppm [2] | pest or weed control at 200 ppm (Phakopsora Pachyrhizi) | inhibition of growth at 20 ppm [3]

CCC(C)C(=O)N(CC)Cc1ccc(-c2noc(C(F)(F)F)n2)cc1 (centres unmarked) [Compound 1.506, N-ethyl-2-methyl-N-[[4-[5-(trifluoromethyl)-1,2,4-oxadiazol-3-yl]phenyl]methyl]-butanamide]
≥ 80%: pest or weed control at 200 ppm [1] | pest or weed control at 200 ppm [2] | pest or weed control at 200 ppm (Phakopsora Pachyrhizi) | inhibition of growth at 20 ppm [3]

C#CCN(Cc1ccc(-c2noc(C(F)(F)F)n2)cc1)C(=O)C1CC1(C)C (centres unmarked) [Compound 1.189, 2,2-dimethyl-N-prop-2-ynyl-N-[[4-[5-(trifluoromethyl)-1,2.4-oxadiazol-3-yl]phenyl]methyl]-cyclopropane-carboxamide]
≥ 80%: pest or weed control at 200 ppm [1] | pest or weed control at 200 ppm [2] | pest or weed control at 200 ppm (Phakopsora Pachyrhizi) | inhibition of growth at 20 ppm [3]

CON(Cc1ccc(-c2noc(C(F)(F)F)n2)cc1)C(=O)C(C)(C)CCl [Compound 1.35, 3-chloro-N-methoxy-2,2-dimethyl-N-[[4-[5-(trifluoromethyl)-1,2,4-oxadiazol-3-yl]phenyl]methyl]-propanamide]
≥ 80%: pest or weed control at 200 ppm [1] | pest or weed control at 200 ppm [2] | pest or weed control at 200 ppm (Phakopsora Pachyrhizi) | inhibition of growth at 20 ppm [3]

CCCN(Cc1ccc(-c2noc(C(F)(F)F)n2)cc1)C(=O)C(CC)COC (centres unmarked) [Compound 1.661, 2-(methoxymethyl)-N-propyl-N-[[4-[5-(trifluoromethyl)-1,2,4-oxadiazol-3-yl]phenyl]methyl]-butanamide]
≥ 80%: pest or weed control at 200 ppm [1] | pest or weed control at 200 ppm [2] | pest or weed control at 200 ppm (Phakopsora Pachyrhizi) | inhibition of growth at 20 ppm [3]

COCC(=O)N(C)Cc1ccc(-c2noc(C(F)(F)F)n2)cc1 [Compound 1.519, 2-methoxy-N-methyl-N-[[4-[5-(trifluoromethyl)-1,2,4-oxadiazol-3-yl]phenyl]methyl]-acetamide]
≥ 80%: pest or weed control at 200 ppm [1] | pest or weed control at 200 ppm [2] | pest or weed control at 200 ppm (Phakopsora Pachyrhizi) | inhibition of growth at 20 ppm [3]

C#CCN(Cc1ccc(-c2noc(C(F)(F)F)n2)cc1)C(=O)C1CCCC1 [Compound 1.168, N-prop-2-ynyl-N-[[4-[5-(trifluoromethyl)-1,2,4-oxadiazol-3-yl]phenyl]methyl]-cyclopentane-carboxamide]
≥ 80%: pest or weed control at 200 ppm [1] | pest or weed control at 200 ppm [2] | pest or weed control at 200 ppm (Phakopsora Pachyrhizi) | inhibition of growth at 20 ppm [3]

CCC(C)N(Cc1ccc(-c2noc(C(F)(F)F)n2)cc1)C(=O)COCCOC (centres unmarked) [Compound 1.384, 2-(2-methoxyethoxy)-N-sec-butyl-N-[[4-[5-(trifluoromethyl)-1,2,4-oxadiazol-3-yl]phenyl]methyl]-acetamide]
≥ 80%: pest or weed control at 200 ppm [1] | pest or weed control at 200 ppm [2] | pest or weed control at 200 ppm (Phakopsora Pachyrhizi) | inhibition of growth at 20 ppm [3]

CCC(C)C(=O)N(C)Cc1ccc(-c2noc(C(F)(F)F)n2)cc1 (centres unmarked) [Compound 1.525, N.2-dimethyl-N-[[4-[5-(trifluoromethyl)-1,2,4-oxadiazol-3-yl]phenyl]methyl]-butanamide]
≥ 80%: pest or weed control at 200 ppm [1] | pest or weed control at 200 ppm [2] | pest or weed control at 200 ppm (Phakopsora Pachyrhizi) | inhibition of growth at 20 ppm [3]

C=CCN(Cc1ccc(-c2noc(C(F)(F)F)n2)cc1)C(=O)C1CCC1 [Compound 1.478, N-allyl-N-[[4-[5-(trifluoromethyl)-1,2,4-oxadiazol-3-yl]phenyl]methyl]-cyclobutane-carboxamide]
≥ 80%: pest or weed control at 200 ppm [1] | pest or weed control at 200 ppm [2] | pest or weed control at 200 ppm (Phakopsora Pachyrhizi) | inhibition of growth at 20 ppm [3]

C=CCN(C(=O)CC)C(C#N)c1ccc(-c2noc(C(F)(F)F)n2)cc1 (centres unmarked) [Compound 1.592, N-allyl-N-[cyano-[4-[5-(trifluoromethyl)-1,2,4-oxadiazol-3-yl]phenyl]methyl]-propanamide]
≥ 80%: pest or weed control at 200 ppm [1] | pest or weed control at 200 ppm [2] | pest or weed control at 200 ppm (Phakopsora Pachyrhizi) | inhibition of growth at 20 ppm [3]

COCCCC(=O)OCCN(Cc1ccc(-c2noc(C(F)(F)F)n2)cc1)C(=O)CCCOC [Compound 1.725, 2-[4-methoxybutanoyl-[[4-[5-(trifluoromethyl)-1,2,4-oxadiazol-3-yl]phenyl]methyl]-amino]ethyl 4-methoxybutanoate]
≥ 80%: pest or weed control at 200 ppm [1] | pest or weed control at 200 ppm [2] | pest or weed control at 200 ppm (Phakopsora Pachyrhizi) | inhibition of growth at 20 ppm [3]

CON(Cc1ccc(-c2noc(C(F)(F)F)n2)cc1)C(=O)C(C)(C)C [Compound 1.42, N-methoxy-2,2-dimethyl-N-[[4-[5-(trifluoromethyl)-1,2,4-oxadiazol-3-yl]phenyl]methyl]-propanamide]
≥ 80%: pest or weed control at 200 ppm [1] | pest or weed control at 200 ppm [2] | pest or weed control at 200 ppm (Phakopsora Pachyrhizi) | inhibition of growth at 20 ppm [3]

CC1(C(=O)N(CCO)Cc2ccc(-c3noc(C(F)(F)F)n3)cc2)CC1 [Compound 1.718, N-(2-hydroxyethyl)-1-methyl-N-[[4-[5-(trifiuoromethyl)-1,2,4-oxadiazol-3-yl]phenyl]methyl]-cyctopropane-carboxamide]
≥ 80%: pest or weed control at 200 ppm [1] | pest or weed control at 200 ppm [2] | pest or weed control at 200 ppm (Phakopsora Pachyrhizi) | inhibition of growth at 20 ppm [3]

N#CC1(C(=O)N(Cc2ccc(-c3noc(C(F)(F)F)n3)cc2)CC(F)(F)F)CC1 [Compound 1.702, 1-cyano-N-(2,2,2-trrfluoroethyl)-N-[[4-[5-(trifluoromethyl)-1,2,4-oxadiazol-3-yl]phenyl]methyl]-cyclopropane-carboxamide]
≥ 80%: pest or weed control at 200 ppm [1] | pest or weed control at 200 ppm [2] | pest or weed control at 200 ppm (Phakopsora Pachyrhizi) | inhibition of growth at 20 ppm [3]

O=C(C1CCOC1)N(Cc1ccc(-c2noc(C(F)(F)F)n2)cc1)C1CC1 (centres unmarked) [Compound 1.103, N-cyclopropyl-N-[[4-[5-(trifluoromethyl)-1,2,4-oxadiazol-3-yl]phenyl]methyl]-tetrahydrofuran-3-carboxamide]
≥ 80%: pest or weed control at 200 ppm [1] | pest or weed control at 200 ppm [2] | pest or weed control at 200 ppm (Phakopsora Pachyrhizi) | inhibition of growth at 20 ppm [3]
